Drawing on ChEMBL document CHEMBL1147358, “A New Brominated Indole-3-carbaldehyde from the Marine Bryozoan Zoobotryon verticillatum” (J Nat Prod, 1993), this text covers Activity for 3 molecules.

Each structure is given as a SMILES string. Active and inactive are the calls of the source. No cut-off for these calls is given here.

Experiment [1] has as its system Echinoidea. Description: Inhibition of sea urchin egg division at 5 ug/ml. In kind it is functional.
In experiment [2] the test system is Echinoidea. Description: Inhibition of sea urchin egg division at 20 ug/ml. In kind it is functional.
The test system of a further experiment is Pluteus. Description: Decrease in mobility of Pluteus larvae at 10 ug/ml. In kind it is functional, organism-based.
For experiment [3], the system named is Echinoidea. The experiment is described as follows: Effect on fertilized sea urchin egg division assessed as delaying of metamorphosis at 5 ug/ml. In kind it is functional.

Consider `CN(C)Cc1c(Br)n(C)c2cc(Br)c(Br)cc12`, for which the outcome in the experiment with Echinoidea [1] and in the experiment with Echinoidea [2] was Active.

As to `Cn1c(Br)c(C[N+](C)(C)[O-])c2cc(Br)c(Br)cc21`, the result in the experiment with Echinoidea [1] and in the experiment on Echinoidea [2] was Active.

On to `Cn1c(Br)c(C=O)c2cc(Br)c(Br)cc21`, for which the result in the experiment on Pluteus and in the experiment on Echinoidea [3] was Active.
